According to patent US20250306007A1, “DETECTING APOPTOTIC BODIES BY IMPEDANCE CYTOMETRY AS AN INDICATOR OF DRUG SENSITIVITY” (University of Virginia Patent Foundation, priority 2022, published 2025):

Tests used:
[1] = test system: highly tumorigenic cells derived from the xenograft 122 (patient-derived tumor cells); test: cell proliferation assays comparing phenotypes over drug concentration ranges; assay type: cell-based
Source text: FIG. 1B is a schematic example of a progression of drug resistance onset of in vitro cancer cells. In an example, a tumor tissue sample 120 can be collected from a cancer patient 118 such as via surgical resection or biopsy. Cells from the tumor tissue sample 120 can be propagated, e.g., within immunocompromised mice as a xenograft 122. […] Once propagated, the line established from the xenograft 122 can be maintained in culture for treatment from a chemotherapeutic drug 124, such as gemcitabine, a fluorouracil, doxorubicin, or any other drug used in the treatment of cancer. In an example involving gemcitabine treatment on highly tumorigenic cells derived from the xenograft 122, the range of gemcitabine levels that lead to drug sensitivity can be assessed by cell proliferation assays 126. Depending on the drug treatment, the in vitro cancer cells can be drug resistant, e.g., with varying degrees of resistance to one or more drugs. The CAFs can also be further propagated in vitro and subjected to additional drug treatment(s) to further examine the drug resistance of the cancer cells. […] These structures can be associated with apoptosis-induced cell disassembly, which generates ABs of particular composition and structure. These phenotypes can be used as a model to help identify and stratify ABs in subsequent patient-derived tumor cells using impedance cytometry techniques based on comparison of their single-particle sensitivity levels.

[2] = test system: cancer cells lifted from the culture (gemcitabine-treated pancreatic tumor cultures); test: impedance cytometry of cancer cell samples exposed to chemotherapeutic drug; assay type: cell-based; details: about 48 hours, FIG. 2A/2B
Source text: Individual cells from the biological sample or culture 102 can flow (e.g., propelled via a focusing flow channel of the impedance cytometry device 104) through the main channel 114 of the test cell 106 at a specified throughput (e.g., within a range of about 200 cells/s to about 500 cells/s) past electrodes or microelectrodes under an AC electric field applied over a specified range of frequencies (e.g., within a range between about 0.5 megahertz (MHz) to 50 MHz). In an example, an impedance of respective detected specimen can be measured by the measurement circuitry 108 concurrently or simultaneously using a plurality of discrete frequencies, e.g., a reference frequency within a range of about 15 MHz and about 20 MHz, and one or more analysis frequencies within a specified analysis frequency range. […] The electrophysiology of the cancer cells lifted from the culture after various gemcitabine treatment conditions can be measured by impedance cytometry to determine impedance magnitude (|Z|) and impedance phase (ϕZ) at a low (0.5 MHz) and a high frequency (18 MHz) for analyzing individual cellular 204 and/or sub-cellular 202 events. […] At a specified threshold frequency (e.g., at about 18 MHz), the impedance signal can be effectively determined by the dielectric properties of the cell interior, rather than properties the cell exterior. […]

Nc1ccn([C@@H]2O[C@H](CO)[C@@H](O)C2(F)F)c(=O)n1 [chemotherapeutic drug 124, gemcitabine]
phenotype (apoptosis-induced cell disassembly structures) ([1]; at about 0.01 μg mL^−1): generation of blebs of varying size on the plasma membrane
phenotype (apoptosis-induced cell disassembly structures) ([1]; at about 0.1 μg mL^−1): presence of large protrusions
phenotype (apoptosis-induced cell disassembly structures) ([1]; at about 1 μg mL^−1): emergence of beaded structures
sub-cellular events (release of ABs) ([2]; increasing drug concentration 0.01, 0.1, 1 μg mL^−1 vs untreated): rise in sub-cellular events 202
impedance phase at 18 MHz (ϕZ18 MHz), cellular and sub-cellular populations ([2]; increasing drug concentration): downward shift in ϕZ18 MHz
